Converted amounts (≈) assume the structure as drawn.

The subject of the assay is Plasmodium falciparum. Description: In vitro anti-malarial activity against Plasmodium falciparum, IC50 assay / [3H]-hypoxanthine incorporation assay. In kind it is cell-based. As to conditions: Erythrocyte, parasitized red blood cells, 48 hours. Here is the method: In Vitro Anti-malarial Activity Against Plasmodium falciparum
IC50 Assay/[^3H]-Hypoxanthine Assay
Plasmodium falciparum strains.
The culture medium comprised RPMI 1640 with 25 mM HEPES, sodium bicarbonate and glutamine (GIBCO™ cat. ref.: 52400), supplemented with 10% of pooled human sera AB (Irvine Scientific, cat. ref.: 5009) and HT supplement (0.15 mM hypoxanthine and 24 μM thymidine), (GIBCO™ cat. ref.: 41065). Human sera were decomplemented 30 min. at 56° C., aliquoted and stored frozen at −20° C. until use in this culture medium.
Red blood cells O+ stock suspensions were prepared from whole blood bags coming from incomplete blood donation, provided by the Spanish Red Cross (<25 days after sampling). This “whole blood” was aliquoted and stored at 4° C.
To prepare red blood cells for the assay, the whole blood was centrifuged and washed 3 times with RPMI without serum. The upper phase, containing white blood cells was removed. The washed red blood cells were kept as a 50% suspension in complete medium. The prepared cells were stored at 4° C. and were employed in the assay at any time up to 4 days after preparation.
Test compounds were dissolved at 2 mg/ml in 100% DMSO on the day of the assay. If necessary, complete dissolution was achieved by gentle heating (the mixture was heated at a temperature <37° C.) and sonication (sonication bath).
For IC50 determinations, 10 serial 2-fold dilutions were prepared in complete medium in the presence of a constant amount of DMSO.
Plasmodium falciparum strains were maintained in complete medium at an hematocrit of 5% in continuous culture using a method adapted from Trager and Jensen (1, 2).
The parasitemia was calculated by counting the percentage of parasitized erythrocytes by optical microscopy. Thin films of blood were made every day from each culture flask, fixed with methanol and stained for 10 min. in Giemsa (Merck, cat ref.: 1.09204) at 10% in buffered water pH 7.2. The glass slides were observed and counted with an optical microscope (Nikon, Eclipse E200) equipped with a 100× immersion oil objective.
The culture was maintained at an hematocrit of 5%, with a daily change of medium and was diluted when parasitemia had reached about 5%.
[^3H] Hypoxanthine incorporation assay was conducted using a method adapted from Desjardins et al. (3). The assays were performed in 96 wells flat bottom microplates.
1. Serial dilutions of the test compounds (50 μl of a 5× solution/well) were deposited in duplicate. Compounds of the invention were tested in this assay. Chloroquine and Atovaquone were used as control compounds for each assay.
3. [^3H]-Hypoxanthine (Amersham Biosciences, cat. ref.: TRK74) was added extemporaneously to the inoculum suspension at a concentration of 1 μCi/ml (equating to […]). 200 μl of the resulting suspension was distributed into each well (other than the control well H12 described below) leading to a final volume of 250 μl per well, at 2% of hematocrit and 0.5% of parasitemia/well.
4. In each plate, 2 columns were reserved for control wells: • Column 11: Positive control wells: PRBCs with 0.2% DMSO—(i) to determine DMSO solvent effect on parasite growth (at a final concentration of 0.2%) and (ii) to compare with cultures treated with test compounds. • Column 12 (comprising wells A12-H12): • A12-D12—Background value wells: Uninfected RBCs—blank control to obtain the background reading from RBCs without parasites. • E12-G12—Solvent effect wells: PRBCs without DMSO—to determine DMSO solvent effect on PRBCs by comparing these wells with column 11 wells. • H12-Non-radioactive well: PRBCs with cold hypoxanthine—(i) to carry out a thin blood film to determine parasitemia value after incubation by microscopy and (ii) to ensure that the parasites have grown properly during the assay. (200 μl of inoculum suspension was prepared as described above (Items 2 and 3) but with non-tritiated hypoxanthine instead of [3H]-hypoxanthine, then added to this well to a final volume of 250 μl). […]
For orientation: IC50 means the concentration that inhibits the measured activity by half. A higher IC50 goes with lower potency. `Cc1[nH]c(C)c(-c2ccc(OCc3cc(C(F)(F)F)cc(C(F)(F)F)c3)nc2)c(=O)c1Br` [Example 5, 5-Bromo-2,6-dimethyl-6′-{[3,5-bis(trifluoromethyl)benzyl]oxy}-3,3′-bipyridin-4(1H)-one] displayed an IC50 below 0.125 µg/mL.

The molecule `Cc1[nH]c(C)c(-c2ccc(OCc3ccc(OC(F)(F)F)cc3)nc2)c(=O)c1Cl` [Example 8, 5-Chloro-2,6-dimethyl-6′-{[4-(trifluoromethoxy)benzyl]oxy}-3,3′-bipyridin-4(1H)-one] yielded an IC50 below 0.125 µg/mL.

The molecule `Cc1[nH]c(C)c(-c2ccc(CCc3ccc(C(F)(F)F)cc3)cn2)c(=O)c1Cl` [Example 52, 5′-Chloro-2′,6′-dimethyl-5-{2-[4-(trifluoromethyl)phenyl]ethyl}-2,3′-bipyridin-4′(1′H)-one] showed an IC50 below 0.125 µg/mL.

The molecule `Cc1[nH]c(C)c(-c2ccc(-c3cccc(C(F)(F)F)c3)nc2)c(=O)c1Cl` [Example 31, 5-Chloro-2,6-dimethyl-6′-{3-[trifluoromethyl]phenyl}-3,3′-bipyridin-4(1H)-one] showed an IC50 below 0.125 µg/mL.

In turn, `Cc1[nH]c(C)c(-c2ccc(-c3ccc(N(C)C)c(Br)c3)nc2)c(=O)c1Br` [Example 71, 5-Bromo-6′-[3-bromo-4-(dimethylamino)phenyl]-2,6-dimethyl-3,3′-bipyridin-4(1H)one] had an IC50 below 0.125 µg/mL.

`Cc1[nH]c(C)c(-c2cnc(-c3ccc(C(F)(F)F)cc3)nc2)c(=O)c1Cl` [Example 64, 3-Chloro-2,6-dimethyl-5-(5-(2-(4-trifluoromethylphenyl))pyrimidinyl)pyridin-4(1H)-one] gave an IC50 below 0.125 µg/mL.

On to `Cc1[nH]c(C)c(-c2ccc(-c3ccc(OC(F)(F)F)cc3)nc2)c(=O)c1Br` [Example 15, 5-Bromo-2,6-dimethyl-6′-{4-[(trifluoromethyl)oxy]phenyl}-3,3′-bipyridin-4(1H)-one], for which the IC50 is below 0.125 µg/mL.

As to `Cc1[nH]c(C)c(-c2ccc(OCc3cc(F)cc(F)c3)nc2)c(=O)c1Cl` [Example 14, 5-Chloro-6′-{[3,5-difluorobenzyl]oxy}-2,6-dimethyl-3,3′-bipyridin-4(1H)-one], the IC50 is below 0.125 µg/mL.

The molecule `Cc1[nH]c(C)c(-c2ccc(-c3ccccc3C(F)(F)F)nc2)c(=O)c1Cl` [Example 32, 5-Chloro-2,6-dimethyl-6′-{2-[trifluoromethyl]phenyl}-3,3′-bipyridin-4(1H)-one] came in with an IC50 below 0.125 µg/mL.

For `Cc1[nH]c(C)c(-c2ccc(OCc3ccccc3C(F)(F)F)nc2)c(=O)c1Br` [Example 4, 5-Bromo-2,6-dimethyl-6′-{[2-(trifluoromethyl)benzyl]oxy}-3,3′-bipyridin-4(1H)-one], the IC50 was below 0.125 µg/mL.

With `Cc1[nH]c(C)c(-c2ccc(OCc3cccc(C(F)(F)F)c3)nc2)c(=O)c1Cl` [Example 9, 5-Chloro-2,6-dimethyl-6′-{[3-(trifluoromethyl)benzyl]oxy}-3,3′-bipyridin-4(1H)-one], the half-inhibitory concentration (IC50) is below 0.125 µg/mL.

`Cc1[nH]c(C)c(-c2ccc(OCc3cc(C(F)(F)F)cc(C(F)(F)F)c3)nc2)c(=O)c1Cl` [Example 12, 5-Chloro-2,6-dimethyl-6′-{[3,5-bis(trifluoromethyl)benzyl]oxy}-3,3′-bipyridin-4(1H)-one] displayed an IC50 below 0.125 µg/mL.

The molecule `Cc1[nH]c(C)c(-c2ccc(OCc3ccc(F)cc3)nc2)c(=O)c1Cl` [Example 13, 5-Chloro-6′-{[4-fluorobenzyl]oxy}-2,6-dimethyl-3,3′-bipyridin-4(1H)-one] yielded an IC50 below 0.125 µg/mL.

`Cc1[nH]c(C)c(-c2ccc(Oc3ccc(OC(F)(F)F)cc3)cc2)c(=O)c1Cl` [Compound Y, 3-chloro-5-(4-(4-trifluoromethoxyphenoxy)phenyl)-2,6-dimethylpyridin-4(1H)-one, reference compound] had an IC50 below 0.125 µg/mL.

The molecule `Cc1[nH]c(C)c(-c2ccc(-c3ccc(C(F)(F)F)cc3Cl)nc2)c(=O)c1Cl` [Example 55, 5-chloro-6′-[2-chloro-4-(trifluoromethyl)phenyl]-2,6-dimethyl-3,3′-bipyridin-4(1H)-one] showed an IC50 below 0.125 µg/mL.

For `Cc1[nH]c(C)c(-c2ccccn2)c(=O)c1Br` [Compound W, 5′-Bromo-2′,6′-dimethyl-2,3′-bipyridin-4′-(1′H)-one, reference compound], the IC50 was 0.5 µg/mL (≈ 1.79 µM).

On to `Cc1[nH]c(C)c(-c2ccc(OCc3ccc(F)cc3)nc2)c(=O)c1Br` [Example 6, 5-Bromo-6′-{[4-fluorobenzyl]oxy}-2,6-dimethyl-3,3′-bipyridin-4(1H)-one], for which the IC50 is below 0.125 µg/mL.

As to `Cc1[nH]c(C)c(-c2ccc(OCc3ccc(OC(F)(F)F)cc3)nc2)c(=O)c1Br` [Example 1, 5-Bromo-2,6-dimethyl-6′-{[4-(trifluoromethoxy)benzyl]oxy}-3,3′-bipyridin-4(1H)-one], the IC50 was below 0.125 µg/mL.

`Cc1[nH]c(C)c(-c2ccc(C#Cc3ccc(C(F)(F)F)cc3)nc2)c(=O)c1Cl` [Example 41, 5-Chloro-2,6-dimethyl-6′-{[4-(trifluoromethyl)phenyl]ethynyl}-3,3′-bipyridin-4(1H)-one] yielded an IC50 below 0.125 µg/mL.

`Cc1[nH]c(C)c(-c2ccc(-c3ccc(OC(F)(F)F)cc3)nc2)c(=O)c1Cl.Cl` [Example 38, 5-Chloro-2,6-dimethyl-6′-{4-[(trifluoromethyl)oxy]phenyl}-3,3′-bipyridin-4(1H)-one] yielded an IC50 below 0.125 µg/mL.

`CCCCc1ccc(-c2ccc(-c3c(C)[nH]c(C)c(Br)c3=O)cn2)cc1.Cl` [Example 39, 5-Bromo-6′-(4-n-butylphenyl)-2,6-dimethyl-3,3′-bipyridin-4(1H)-one]: the IC50 is below 0.125 µg/mL.

For `Cc1[nH]c(C)c(-c2ccc(-c3cccc(OC(F)(F)F)c3)nc2)c(=O)c1Cl` [Example 28, 5-Chloro-2,6-dimethyl-6′-{3-[(trifluoromethyl)oxy]phenyl}-3,3′-bipyridin-4(1H)-one], the IC50 is below 0.125 µg/mL.

`Cc1[nH]c(C)c(-c2ccc(-c3ccccc3Cl)nc2)c(=O)c1Cl` [Example 35, 5-Chloro-6′-(2-chlorophenyl)-2,6-dimethyl-3,3′-bipyridin-4(1H)-one] showed an IC50 below 0.125 µg/mL.
